Series [1] is described as follows: Coagulation properties via ROTEM. The note with it: at fully efficacious doses.
Series [2] relates to enoxaparin. The experiment in a line: In vivo neutralization of enoxaparin in the rat. The note with it: compared with protamine.
In series [3] the test system is enoxaparin. The series is described as follows: Enoxaparin-extended bleeding times, rat tail transection model. The format is in vivo. The protocol:
Studies have now been done to examine effects on extended bleeding times caused by enoxaparin treatment. Male Sprague Dawley rats (Charles River) were administered 2 mg/kg enoxaparin by IV injection in the tail vein, followed 3 minutes later by test agent (IV, tail vein) at 2 and 5 mg/kg doses. Tails were then rapidly transected and bleeding time onto an absorbant pad was determined. Enoxaparin alone (no antagonist) extends bleeding time from 11 to 24 seconds.

In series [4] the test system is UFH. The experiment in a line: FXa amidolytic assay (Example 10), UFH. The note with it: read-out: Heparin FXa uM EC50; UFH 0.03 units/mL; human antithrombin, bovine Factor Xa.
Procedure: (§2) Two μl of test agent are added (range between 0.01 and 23 ug/ml) and incubated for 5 minutes at 23° C. Bovine Factor Xa was added to a final concentration of 0.636 nkat/mL and incubated for a further 10 minutes at 23° C.
Series [5] concerns UFH. The experiment in a line: In vivo neutralization of unfractionated heparin in the rat. As to conditions: UFH 100 U/kg IV, 1 mg/kg dose IV. The protocol: The male Sprague-Dawley rats used in this study were obtained from Charles River Laboratories, Raleigh. They were nine-weeks-old at the start of the study and their weights ranged from 279-334 g. Rats were pre-treated with UFH administered by IV injection in a tail vein at 100 U/kg in a dose volume of 1 mL/kg. The rats were then treated with a single IV injection of saline, protamine or the appropriate test compound at doses of 0.25, 0.5 and 1.0 mg/kg. All treatments were dosed in a volume of 1 mL/kg. Blood was collected via the orbital sinus from three rats per group at the following time points after treatment: predose, 1, 3, 10, 30 and 60. At each time point, 1 mL of blood was collected from each animal into a single tube. The blood was analyzed using an AMEX Destiny Plus Coagulation Analyzer for activated partial thromboplastintime (APTT) and anti-Factor Xa.

Series [6] concerns Unfractionated heparin. The series is described as follows: aPTT clotting assay, UFH 0.4 U/mL in plasma (Example 10). The format is biochemical. As to conditions: unfractionated heparin 0.4 U/mL in plasma; aPTT clotting. The protocol: aPTT clotting Assay: Unfractionated heparin was mixed with plasma at a final concentration of 0.4 U/mL (or concentration which increases aPTT time to between 120 and 300 seconds). […] The ACL Elite Hemostasis analyzer (Beckman Coulter™) was used to add aPTT reagent (HemosIL SynthASil) to supplemented plasma. Clotting was initiated by addition of CaCl2 and time to clot was recorded.

Series [7] has as its system fondaparinux. The series is described as follows: In vivo neutralization of fondaparinux in the rat. As to conditions: fondaparinux 0.5 mg/kg IV, test agent 2 and 5 mg/kg IV.
For series [8], the system named is blood pressure. The series is described as follows: Hemodynamic responses in the anesthetized rat. In kind it is in vivo.
Series [9] concerns isolated human erythrocytes. The series is described as follows: in vitro. The format is cell-based. Summed up: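 Test agent was serially diluted two-fold over 0.48–1000 µg/ml and incubated for 1 h at 37 °C with shaking, using erythrocytes from pooled human blood diluted in Tris-buffered saline pH 7.4 (0.22% stock). Hemolysis was measured as supernatant absorbance at 405 nm. A four-parameter logistic equation gave EC50, and melittin served as the positive control.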

Series [10] relates to fondaparinux. The experiment in a line: FXa amidolytic assay (Example 10), fondaparinux.
Procedure: as §2
For series [11], the system named is NIH/3T3 cells. The experiment in a line: Cytotoxicity colorimetric assay, NIH/3T3. The format is cell-based, mouse. As to conditions: one hour in serum-free media. A digest of the protocol: (§1)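 HepG2 cells (3×10^4/well, MEM + 10% FBS) and NIH/3T3 cells (2×10^4/well, DMEM + 10% BCS) were exposed to compound for 1 h in serum-free medium. Viability read by tetrazolium-to-formazan bioreduction after return to serum medium; EC50 from a four-parameter logistic fit.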

Series [12] in a line: Cytotoxicity colorimetric assay, NIH/3T3. As to conditions: mouse, NIH/3T3 cells, one hour in serum-free media. The format is cell-based, mouse. Summed up:
as §1

The subject of series [13] is HepG2 cells. The series is described as follows: Cytotoxicity colorimetric assay, HepG2. The format is cell-based, human. As to conditions: one hour in serum-free media. A digest of the protocol: as §1
Series [14] in a line: Cytotoxicity colorimetric assay, HepG2. The note with it: human, HepG2 cells, one hour in serum-free media. In kind it is cell-based, human. A digest of the protocol:
as §1

Series [15] relates to tinzaparin. The series is described as follows: FXa amidolytic assay (Example 10), tinzaparin. As to conditions: read-out: Tinzap FXa EC50; tinzaparin 0.1 ug/ml; human antithrombin, bovine Factor Xa.
Procedure: as §2

Structures are written as SMILES. ≈ marks a conversion by molar mass, not a printed value. Where “and” joins values, the source holds several entries; their conditions need not be identical. Equal entries are not always repeated.

For orientation: EC50 means the concentration needed to bring the measured effect to its halfway point. Regarding `COc1ccc(NC(=O)[C@@H](CCCNC(=N)N)NC(=O)c2cc(NC(=O)[C@@H](CCCNC(=N)N)NC(=O)c3cc(NC(=O)[C@@H](CCCNC(=N)N)NC(=O)c4cc(NC(=O)[C@H](N)CCCNC(=N)N)ccc4OCC(=O)O)ccc3OC)ccc2OC)cc1C(N)=O` [Compound 283], the “coagulation properties via ROTEM” value in [1] was “normal coagulation properties at fully efficacious doses”. Further, in series [2], the “in vivo efficacy versus LMWH by anti-factor Xa activity (summary)” value was “superior to protamine”. Also, the “in vivo efficacy versus LMWH by bleeding time (summary)” value in series [3] (compared with protamine) is on record as “superior to protamine”. Besides, in [3] (rat, enoxaparin 2 mg/kg IV, test agent 2 mg/kg IV), the “neutralization of prolonged bleeding times” value is listed as “completely neutralized”. In addition, the concentration for a half-maximal effect (EC50) in series [4] was 0.101 µM; in [6], 1390 nM and 1840 nM; in series [9] (Homo sapiens, Erythrocyte, 1 h, human RBC, 1 hour at 37° C., read-out: Hemolysis EC50), more than 1000 µg/mL; in series [10] (read-out: Fondap FXa EC50, fondaparinux 0.02 μg/mL, human antithrombin, bovine Factor Xa) it was 575 nM and 530 nM and 452 nM; in series [15], 124 nM and 96 nM. Further, the “neutralization of UFH activity in aPTT assays” value in [5] is “complete neutralization”. Moreover, the “reduction of Factor Xa (anti-factor Xa) levels after fondaparinux” value in series [7] is recorded as “lack of effectiveness”. The hemodynamic response profile result in series [8] (anesthetized rat, 8 or 16 mg/kg 10 minute IV infusion after heparin 50 U/kg) is reported as “superior to protamine”. The “hemodynamic liabilities (summary)” value in [8] (rat, in vivo) is on record as “reduced hemodynamic liabilities”. The “hemolysis and cytotoxicity (summary)” value in series [9] is “non-hemolytic and low cytotoxicity”. The “Potent LMWH-antagonists with superior anti-fondaparinux activity (summary)” value in [10] was “superior anti-fondaparinux activity”. For the same compound, the “Cytotoxicity 3T3 EC50” value in series [11] is more than 1000 µg/mL. Further, the EC50 at 1 h in series [12] and in [14] was 1000 µg/mL (≈ 780 µM) each time. In addition, the “Cytotoxicity HepG2 EC50” value in [13] was more than 1000 µg/mL.

The values are drawn from US20110178104A1, “Anti-Heparin Compounds” (POLYMEDIX INC., priority 2010, published 2011).
